In ChEMBL document CHEMBL1268875, “Isoflavone derivatives inhibit NF-κB-dependent transcriptional activity” (Bioorg Med Chem Lett, 2010):
The source made the active and inactive calls. The rule behind the calls is not given here.

These compounds were tested on HCT-116 (assay: Inhibition of TNF-alpha-induced Nuclear factor-kappa-B dependent transcriptional activity in human HCT116 cells assessed normalized inhibitory ratio of at 10 uM for 12 hrs by NF-kappaB cis-acting luciferase reporter gene assay relative to untreated control).
Type: cell-based

Compound	Ratio
COc1cc(OC)c2c(=O)c(-c3ccc(Br)cc3)coc2c1	0.25
COc1cc(OC)c2c(=O)c(-c3ccc(OC)c(OC)c3)coc2c1	0.19
COc1cc(O)c2c(=O)c(-c3ccc(O)cc3)coc2c1	0.34
Cc1cc2occ(-c3ccc(Cl)cc3Cl)c(=O)c2cc1Cl	0.27
COc1ccc2c(=O)c(-c3ccc(Cl)cc3)coc2c1C	0.63
Cc1c(O)ccc2c(=O)c(-c3ccccc3)coc12	0.45
COc1ccc2c(=O)c(-c3ccccc3)coc2c1C	0.23
O=c1c(-c2ccc(O)cc2)coc2c(O)c(O)ccc12	1.22
COc1ccc(-c2coc3cc(OC)c(OC)cc3c2=O)cc1OC	0.4
COc1cc(OC)c2c(=O)c(-c3cccc(Cl)c3)coc2c1	0.63
COc1ccc(-c2coc3cc(O)c(OC)cc3c2=O)cc1	2.37
COc1ccc(-c2coc3c(OC)c(OC)ccc3c2=O)cc1	0.95
Cc1c(O)ccc2c(=O)c(-c3ccc(Cl)cc3)coc12	1.04
COc1ccc(-c2coc3c(C)c(OC)ccc3c2=O)cc1	0.62
Cc1cc2occ(-c3ccccc3)c(=O)c2cc1Cl	0.32
COc1ccc2c(=O)c(-c3ccc(OC)c(OC)c3)coc2c1	0.45
COc1ccc(-c2coc3cc(O)ccc3c2=O)cc1OC	2.53
COc1cc(C)c2c(=O)c(-c3ccccc3)coc2c1	0.67
COc1ccc(-c2coc3cc(OC)c(Cl)cc3c2=O)cc1O	0.54
COc1cc2occ(-c3ccccc3Cl)c(=O)c2cc1Cl	0.54
COc1cc(OC)c2c(=O)c(-c3ccc(Cl)cc3)coc2c1	0.61
COc1cc(OC)c2c(=O)c(-c3ccccc3Cl)coc2c1	0.54
COc1ccc2c(=O)c(-c3ccccc3)coc2c1	0.36

Each compound was assayed on HCT-116 (assay: Inhibition of TNF-alpha-induced nuclear translocation of Nuclear factor-kappa-B in human HCT116 cells pretreated for 30 mins before stimulation with TNFalpha for 30 mins by Western blot).
Type: cell-based

Compound	inhibition
COc1cc(OC)c2c(=O)c(-c3ccc(OC)c(OC)c3)coc2c1	Active

What follows are compounds tested on HCT-116 (assay: Inhibition of TNF-alpha-induced Nuclear factor-kappa-B-mediated CXCL1 expression in human HCT116 cells pretreated for 30 mins before stimulation with TNFalpha for 15 mins by RT-PCR).
Type: cell-based

Compound	inhibition
COc1cc(OC)c2c(=O)c(-c3ccc(OC)c(OC)c3)coc2c1	Active

What follows are compounds tested on HCT-116 (assay: Inhibition of TNF-alpha-induced Nuclear factor-kappa-B-mediated XIAP expression in human HCT116 cells pretreated for 30 mins before stimulation with TNFalpha for 15 mins by RT-PCR).
Type: cell-based

Compound	inhibition
COc1cc(OC)c2c(=O)c(-c3ccc(OC)c(OC)c3)coc2c1	Active

The compounds below were run on HCT-116 (assay: Inhibition of TNF-alpha-induced Nuclear factor-kappa-B-mediated CIAP2 expression in human HCT116 cells pretreated for 30 mins before stimulation with TNFalpha for 15 mins by RT-PCR).
Type: cell-based

Compound	inhibition
COc1cc(OC)c2c(=O)c(-c3ccc(OC)c(OC)c3)coc2c1	Active
